In ChEMBL document CHEMBL1201862, “PubChem BioAssay data set” (2004):
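A five-concentration, 48-hour dose response in 96-well plates underlies each endpoint, interpolated linearly between surrounding concentrations. Abbreviation: GI50, concentration required for 50% inhibition of growth.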 Calls of active or inactive are those of the source. Rule as the data show it: active = GI50 up to about 1.1 µM and inactive = higher.

Legend:
Experiment in all cases: inhibition of tumour cell growth, NCI panel, 48 h
UACC-257 = tested on: UACC-257
A549 = tested on: A549
786-0 = tested on: 786-0
IGROV-1 = tested on: IGROV-1
BT-549 = tested on: BT-549
ACHN = tested on: ACHN
NCI/ADR-RES = tested on: NCI/ADR-RES
HCT-116 = tested on: HCT-116
PC-3 = tested on: PC-3
HCC 2998 = tested on: HCC 2998
MOLT-4 = tested on: MOLT-4
RPMI-8226 = tested on: RPMI-8226
SNB-19 = tested on: SNB-19
OVCAR-3 = tested on: OVCAR-3
MDA-N = tested on: MDA-N
SF-295 = tested on: SF-295
U-251 = tested on: U-251
NCI-H226 = tested on: NCI-H226
SF-268 = tested on: SF-268
HOP-62 = tested on: HOP-62
Hs-578T = tested on: Hs-578T
K562 = tested on: K562
HT-29 = tested on: HT-29
HOP-92 = tested on: HOP-92
MDA-MB-231 = tested on: MDA-MB-231
UACC-62 = tested on: UACC-62
OVCAR-8 = tested on: OVCAR-8
SR = tested on: SR
SK-OV-3 = tested on: SK-OV-3
MDA-MB-435 = tested on: MDA-MB-435
CAKI-1 = tested on: CAKI-1
HL-60 = tested on: HL-60
Malme-3M = tested on: Malme-3M
NCI-H460 = tested on: NCI-H460
EKVX = tested on: EKVX
OVCAR-5 = tested on: OVCAR-5
DU-145 = tested on: DU-145
SF-539 = tested on: SF-539
CCRF-CEM = tested on: CCRF-CEM
A498 = tested on: A498
SK-MEL-5 = tested on: SK-MEL-5
HCT-15 = tested on: HCT-15
TK-10 = tested on: TK-10
LOX IMVI = tested on: LOX IMVI
SW-620 = tested on: SW-620
KM12 = tested on: KM12
MCF7 = tested on: MCF7
SK-MEL-28 = tested on: SK-MEL-28
NCI-H23 = tested on: NCI-H23
M14 = tested on: M14
T47D = tested on: T47D
UO-31 = tested on: UO-31
SK-MEL-2 = tested on: SK-MEL-2
COLO 205 = tested on: COLO 205
OVCAR-4 = tested on: OVCAR-4
SN12C = tested on: SN12C
SNB-75 = tested on: SNB-75
NCI-H522 = tested on: NCI-H522
RXF 393 = tested on: RXF 393

## C=C1CC(Cn2ccc(=O)[nH]c2=O)(c2ccc(-c3ccccc3)cc2)OC1=O (stereo not given)
UACC-257
  GI50: 1.65 µM (inactive)
A549
  GI50: 11.1 µM (inactive)
786-0
  GI50: 0.619 µM (active)
IGROV-1
  GI50: 1.04 µM (active)
BT-549
  GI50: 1.86 µM (inactive)
ACHN
  GI50: 1.78 µM (inactive)
NCI/ADR-RES
  GI50: 0.805 µM (active)
HCT-116
  GI50: 0.377 µM (active)
PC-3
  GI50: 3.2 µM (inactive)
HCC 2998
  GI50: 2.07 µM (inactive)
MOLT-4
  GI50: 1.5 µM (inactive)
RPMI-8226
  GI50: 0.234 µM (active)
SNB-19
  GI50: 16.9 µM (inactive)
OVCAR-3
  GI50: 1.98 µM (inactive)
MDA-N
  GI50: 1.03 µM (active)
SF-295
  GI50: 12.5 µM (inactive)
U-251
  GI50: 12.1 µM (inactive)
NCI-H226
  GI50: 4.6 µM (inactive)
SF-268
  GI50: 16.1 µM (inactive)
HOP-62
  GI50: 15.2 µM (inactive)
Hs-578T
  GI50: 3.7 µM (inactive)
K562
  GI50: 0.208 µM (active)
HT-29
  GI50: 0.938 µM (active)
HOP-92
  GI50: 1.2 µM (inactive)
MDA-MB-231
  GI50: 1.98 µM (inactive)
UACC-62
  GI50: 0.764 µM (active)
OVCAR-8
  GI50: 2.62 µM (inactive)
SR
  GI50: 0.995 µM (active)
SK-OV-3
  GI50: 8.09 µM (inactive)
MDA-MB-435
  GI50: 1.69 µM (inactive)
CAKI-1
  GI50: 1.16 µM (inactive)
HL-60
  GI50: 0.154 µM (active)
Malme-3M
  GI50: 1.46 µM (inactive)
NCI-H460
  GI50: 11.2 µM (inactive)
EKVX
  GI50: 12.2 µM (inactive)
OVCAR-5
  GI50: 10 µM (inactive)
DU-145
  GI50: 1.05 µM (active)
SF-539
  GI50: 2.4 µM (inactive)
CCRF-CEM
  GI50: 0.305 µM (active)
A498
  GI50: 2.86 µM (inactive)
SK-MEL-5
  GI50: 1.16 µM (inactive)
HCT-15
  GI50: 1.65 µM
TK-10
  GI50: 1.03 µM (active)
LOX IMVI
  GI50: 0.493 µM (active)
SW-620
  GI50: 0.257 µM (active)
KM12
  GI50: 3.61 µM (inactive)
MCF7
  GI50: 0.916 µM (active)
SK-MEL-28
  GI50: 2.45 µM (inactive)
NCI-H23
  GI50: 1.98 µM (inactive)
M14
  GI50: 1.67 µM (inactive)
T47D
  GI50: 1.57 µM (inactive)
UO-31
  GI50: 6.64 µM (inactive)
SK-MEL-2
  GI50: 2.09 µM (inactive)
COLO 205
  GI50: 0.441 µM (active)
OVCAR-4
  GI50: 2.1 µM (inactive)
SN12C
  GI50: 4.6 µM (inactive)
SNB-75
  GI50: 13.6 µM (inactive)
NCI-H522
  GI50: 0.836 µM (active)

## O=C(c1ccco1)N(C(=S)OC12CC3CC(CC(C3)C1)C2)c1ccccc1
UACC-257
  GI50: 30.9 µM (inactive)
A549
  GI50: 32.2 µM (inactive)
786-0
  GI50: 31.2 µM (inactive)
BT-549
  GI50: 34.5 µM (inactive)
ACHN
  GI50: 27.1 µM (inactive)
NCI/ADR-RES
  GI50: 28.6 µM (inactive)
HCT-116
  GI50: 19.9 µM (inactive)
PC-3
  GI50: 20.5 µM (inactive)
HCC 2998
  GI50: 25.1 µM (inactive)
MOLT-4
  GI50: 24.4 µM (inactive)
SNB-19
  GI50: 34.7 µM (inactive)
OVCAR-3
  GI50: 28.1 µM (inactive)
MDA-N
  GI50: 29.4 µM (inactive)
SF-295
  GI50: 27.7 µM (inactive)
U-251
  GI50: 23.3 µM (inactive)
NCI-H226
  GI50: 27.2 µM (inactive)
SF-268
  GI50: 32.9 µM (inactive)
HOP-62
  GI50: 28.2 µM (inactive)
Hs-578T
  GI50: 32.6 µM (inactive)
K562
  GI50: 28.6 µM (inactive)
HT-29
  GI50: 33.5 µM (inactive)
HOP-92
  GI50: 19.5 µM (inactive)
MDA-MB-231
  GI50: 31.8 µM (inactive)
UACC-62
  GI50: 23.4 µM (inactive)
OVCAR-8
  GI50: 31.3 µM (inactive)
SR
  GI50: 25.7 µM (inactive)
SK-OV-3
  GI50: 23.4 µM (inactive)
MDA-MB-435
  GI50: 28.9 µM (inactive)
CAKI-1
  GI50: 33.3 µM (inactive)
HL-60
  GI50: 19.3 µM (inactive)
Malme-3M
  GI50: 26.8 µM (inactive)
NCI-H460
  GI50: 30.8 µM (inactive)
EKVX
  GI50: 18.8 µM (inactive)
OVCAR-5
  GI50: 39.7 µM (inactive)
DU-145
  GI50: 52.8 µM (inactive)
SF-539
  GI50: 20.2 µM (inactive)
CCRF-CEM
  GI50: 16.9 µM (inactive)
A498
  GI50: 23.3 µM (inactive)
SK-MEL-5
  GI50: 17.7 µM (inactive)
HCT-15
  GI50: 28.2 µM
TK-10
  GI50: 42.3 µM (inactive)
LOX IMVI
  GI50: 26.7 µM (inactive)
SW-620
  GI50: 29 µM (inactive)
KM12
  GI50: 31.2 µM (inactive)
MCF7
  GI50: 26.2 µM (inactive)
SK-MEL-28
  GI50: 37.9 µM (inactive)
NCI-H23
  GI50: 27.8 µM (inactive)
M14
  GI50: 20.9 µM (inactive)
T47D
  GI50: 47.2 µM (inactive)
RXF 393
  GI50: 13.7 µM (inactive)
UO-31
  GI50: 24.9 µM (inactive)
SK-MEL-2
  GI50: 21.2 µM (inactive)
COLO 205
  GI50: 16.4 µM (inactive)
OVCAR-4
  GI50: 36.1 µM (inactive)
SN12C
  GI50: 27.9 µM (inactive)
SNB-75
  GI50: 48.5 µM (inactive)
NCI-H522
  GI50: 19.9 µM (inactive)
